Paper PMC8874959 (Viruses, 2022)
Values after ≈ are worked out from the molar mass of the structure shown. “Also recorded” adds a separate entry of the source. Where two headings read alike, the source gives them in different places.

What was measured:
in vitro [1] = format: cell-based; conditions: African green monkey
SARS-CoV-2 [2] = conditions: cited from earlier work
[3] = cited from earlier work; for Plasma protein binding: Table S3, ref DrugBank, PubChem, Warhurst, et al JAC 2003, Schroeder and Gerber Toxicol. Rep. 2014
[4] = ref DrugBank; PubChem; Warhurst, et al JAC 2003; Schroeder and Gerber Toxicol. Rep. 2014; cited from earlier work
in vitro [5] = format: cell-based; conditions: human
SARS-CoV-2 Gamma strain = experiment: microbe, parasite or virus in culture; format: cell-based; conditions: Severe acute respiratory syndrome coronavirus 2; Calu-3, Gamma strain, MOI 0.1, 48 hpi
[6] = tested on: SARS-CoV-2-infected monocytes; format: cell-based, human
SARS-CoV-2 [7] = format: cell-based
SARS-CoV-2 [8] = conditions: Vero-E6, cited from earlier work
tuberculosis = conditions: cited from earlier work
[9] = cited from earlier work; for Cmax: human plasma
[10] = PBPK input, cited from earlier work
SARS-CoV-2 [11] = format: cell-based; remark: listed apart in the source

CCN(CC)CCCC(C)Nc1ccnc2cc(Cl)ccc12 (stereo not drawn) [Chloroquine]
CC50 at 72 h (in vitro [1]; Vero E6, 72 h): 259 ± 5 µM | Antiviral activity in SARS-CoV-2-infected Calu-3 cells (SARS-CoV-2 [2]): inactive; also recorded: lacks antiviral activity | Plasma protein binding [3]: 46-74%

CCN(CCO)CCCC(C)Nc1ccnc2cc(Cl)ccc12 (stereo not drawn) [Hydroxychloroquine, hydroxychloroquine]
Antiviral activity in SARS-CoV-2-infected Calu-3 cells (SARS-CoV-2 [2]): lacks antiviral activity | Plasma protein binding [3]: 50% | Lipinski’s rule of five [4]: Yes | LogP [4]: 4.12 | Physiological charge [4]: +2 | pKa1 [4]: < 4.0 | pKa2 [4]: 8.3 | pKa3 [4]: 9.7

OC(c1cc(C(F)(F)F)nc2c(C(F)(F)F)cccc12)C1CCCCN1 (stereo not drawn) [Mefloquine]
CC50 (in vitro [5]): 19.9 ± 0.06 µM | CC50 (in vitro [1]): 9.2 ± 0.3 µM | EC50 (SARS-CoV-2 Gamma strain): 1.2 ± 0.4 µM | EC90 (SARS-CoV-2 Gamma strain): 2.7 ± 0.3 µM | Virus-induced IL-6 levels [6]: reduce the augmentation of these cytokines in a donor-dependent manner | Virus-induced TNF-α levels [6]: reduce the augmentation of these cytokines in a donor-dependent manner | Virus-induced monocyte death (LDH) [6]: reduce virus-induced monocyte death | Number of viral particles in the endosomes (SARS-CoV-2 [7]): reduced the number of viral particles in the endosomes | EC90 (SARS-CoV-2 [8]; ref 8 (supplement)): 3.0643 µg/mL (≈ 8.1 µM) | EC90 (SARS-CoV-2 [8]; ref 9 (supplement)): 2.4552 µg/mL (≈ 6.49 µM) | EC90 (SARS-CoV-2 [8]; ref 10 (supplement)): 2.5138 µg/mL (≈ 6.64 µM) | Minimal inhibitory concentration (tuberculosis): 20 µM (≈ 7.57 µg/mL) | Half-life [9]: measured in weeks | Cmax ([9]; equivalent): 8.67 µM | Cmax [9]: 3279 ng/mL | Protein binding ([3]; PBPK input, ref 12 (supplement)): 98% | Plasma protein binding [3]: > 98% | Half-life ([10]; ref 11 (supplement)): 2-4 weeks | Intrinsic clearance ([10]; ref 12 (supplement)): 10.47 L/h | Log P ([10]; ref 12 (supplement)): 3.87 | pKa (diprotic base) ([10]; ref 12 (supplement)): 8.7 | LogP [4]: 3.90 | Water solubility [4]: 38 µg/mL | pKa1 [4]: lower than 3.0 | pKa2 [4]: 9.46 | pKa3 [4]: 13.79

CCC(CC)COC(=O)[C@H](C)N[P@](=O)(OC[C@H]1O[C@@](C#N)(c2ccc3c(N)ncnn23)[C@H](O)[C@@H]1O)Oc1ccccc1 [Remdesivir]
CC50 (in vitro [5]): 480 ± 20 µM | CC50 (in vitro [1]): 512 ± 30 µM | EC50 (SARS-CoV-2 Gamma strain): 0.01 ± 0.008 µM | EC90 (SARS-CoV-2 Gamma strain): 0.2 ± 0.02 µM | Improvement of remdesivir's efficiency (SARS-CoV-2 [11]): 200 fold
